Read-outs that look alike come from different tables or passages of the source.
Tests used:
[1] = Coated metal coupon cleaning, gravimetric; conditions: Krytox, 15 minute immersion, 15 mL
Description: (§1) A sample comprising 25 volume percent (A.) 4-bromo-3-chloro-3,4,4-trifluoro-1-butene and 75 volume percent (B.) 1-chloro-2,2,2-trifluoroethyl difluoromethyl ether was added to several beakers, each containing a metal coupon completely coated with one of the following materials: Mil Spec 83282 hydraulic oil, Mil Spec 7808 engine oil, Krytox fluorocarbon grease and Mil Spec 81322 aviation grease. Two batches were subjected to 15 minute immersion with 15 mL of solvent mixture but one was exposed to ultrasonic vibrations and the other kept static. Afterwards, the coupons were removed and weighed for gravimetric analysis.
as §1, with “50” for “25”, “50” for “75”
(§2) Two batches were subjected to 15 minute immersion with 15 mL of solvent mixture but one was exposed to ultrasonic vibrations and the other kept static. Afterwards, the coupons were removed and weighed for gravimetric analysis.
The compounds (A) 4-bromo-3-chloro-3,4,4-trifluoro-1-butene and (B) 1-chloro-2,2,2-trifluoroethyl difluoromethyl ether, were mixed 50:50 by volume and tested to remove Krytox. The individual components, A and B, remove 17.0% and 98.7%, respectively, of this contaminant after 15 min. with ultrasonic treatment. The mixture removed 99.3% of the same contaminant under the same conditions.

LD50 = conditions: in vivo
Excerpt: Toxicity is yet another factor which must be considered when selecting second-generation replacement solvents. Parameters such as the lethal dose 50 (LD50), lethal concentration 50 (LC50), cardiac sensitization, skin irritation, and mutagenicity (e.g., via the Ames test) can be used as measures. LDn or LCn abbreviation, where n is the percent lethality, is used for the dose of a toxicant lethal to n % of a test population. […] Cardiac sensitization is a measure of the ability of a compound to cause cardiac arrhythmia under stress.
(§3) Skin irritation is also an important consideration for a solvent.

Skin irritation = conditions: in vivo
Excerpt: as §3

Ames mutagenicity assay = test: Ames mutagenicity assay
Excerpt: as §3

Chinese hamster = test: In vitro genotoxicity; conditions: in vitro Chinese hamster oocytes
Excerpt: as §3

[2] = listed; cited from earlier work
[3] = Coated metal coupon cleaning, gravimetric; conditions: 15 minute immersion, 15 mL
Description: as §1
as §1, with “50” for “25”, “50” for “75”
as §2

SMILES	percent contaminant removed ([1]; Ultrasonic) [%]	LD50 (LD50) [mg/kg]	skin irritation (Skin irritation)	Ames mutagenicity assay (Ames mutagenicity assay)	genotoxicity (Chinese hamster)	percent contaminant removed ([1]; Static) [%]	skin irritation [2]	percent contaminant removed ([3]; 7808 oil, Static) [%]	percent contaminant removed ([3]; 7808 oil, Ultrasonic) [%]	percent contaminant removed ([3]; 81322 grease, Static) [%]	percent contaminant removed ([3]; 81322 grease, Ultrasonic) [%]	percent contaminant removed ([3]; 83282 oil, Static) [%]	percent contaminant removed ([3]; 83282 oil, Ultrasonic) [%]
C=CC(F)(Cl)C(F)(F)Br (stereo not drawn) [A, 4-bromo-3-chloro-3,4,4-trifluoro-1-butene]	17.0	> 40000	moderate to non-irritants	negative	not genotoxic								
FC(F)(Cl)C(F)(Cl)Cl [CFC-113, 1,1,2-trichloro-1,2,2-trifluoroethane]	97.7					36.2	mild irritant	100	99.2	24.1	94.8	100	100
FC(F)OC(Cl)C(F)(F)F (stereo not drawn) [Compound B, 1-chloro-2,2,2 trifluoroethyl difluoromethyl ether]	98.7	8100	moderate to non-irritants	negative	not genotoxic								
FC(F)OC(F)(F)C(F)Cl (stereo not drawn) [Compound C, 2-chloro-1,1,2-trifluoroethyl difluoromethyl ether]		13000	moderate to non-irritants	negative	not genotoxic								
COC(C(F)(F)F)C(F)(F)F [E, methyl 2,2,2-trifluoroethyl-1-(trifluoromethyl)ether]		> 40000	moderate to non-irritants	negative	not genotoxic								

From patent US7429557B2, “Replacement solvents having improved properties and methods of using the same” (Mainstream Engineering Corporation, priority 2005, dated 2008)
